The target of the assay is T1, recombinant DPP-4 enzyme D4943 (Homo sapiens, UniProt P27487).
T1 construct: purchased Sigma-Aldrich D4943
The assay can be described thus: DPP-4 enzyme inhibition, chromogenic substrate Gly-Pro-pNA, absorbance at 405 nm. Format: biochemical. The following applies: 37 °C for 30 min, pH 7.6, dilution range 10^−4 to 10^−11 M. The method, then: The DDP-4 enzyme inhibitory activities of the synthesised compounds were assessed using protocols similar to those described in the literature. For IC50 values determination, inhibitory assays were carried out using recombinant DPP-4 enzyme D4943, chromogenic substrate Gly-Pro-pNA and buffer system (50 mM Tris-HCl, 50 mM NaCl, 0.01% Triton, pH = 7.6). After short incubation (37 °C for 30 min), the absorbance at 405 nm was measured. The procedure was initially optimised using reference compounds. Each inhibitor was analysed in the dilution range from 10^−4 to 10^−11 M. Certified samples of commercial drugs-inhibitors of DPP-4 (vilda-, sita-, alo- and linagliptin) with known IC50 were used as reference compounds. […] We analysed every compound in the dilution range […] (Table 3).
For the inhibitory assays, we used the substrate Gly-Pro-p-nitroanilide (H-Gly-Pro-pNA HCl, G0513) and recombinant dipeptidyl peptidase-4 enzyme (D4943) that were purchased from Sigma-Aldrich (St. Louis, MO, USA). […] The mixtures were incubated at 37 °C for 30 min, and the absorbance at 405 nm was measured using the microplate reader ChemWell (Awareness Technology Inc., Palm City, FL, USA). DPP-4 inhibitory activities for each test compound were calculated. […]

We go through one substance from article PMC8949241, “Design, Synthesis and Biological Evaluation of Neogliptin, a Novel 2-Azabicyclo[2.2.1]heptane-Based Inhibitor of Dipeptidyl Peptidase-4 (DPP-4)” (Pharmaceuticals, 2022).

T1 sequence (P27487 whole entry): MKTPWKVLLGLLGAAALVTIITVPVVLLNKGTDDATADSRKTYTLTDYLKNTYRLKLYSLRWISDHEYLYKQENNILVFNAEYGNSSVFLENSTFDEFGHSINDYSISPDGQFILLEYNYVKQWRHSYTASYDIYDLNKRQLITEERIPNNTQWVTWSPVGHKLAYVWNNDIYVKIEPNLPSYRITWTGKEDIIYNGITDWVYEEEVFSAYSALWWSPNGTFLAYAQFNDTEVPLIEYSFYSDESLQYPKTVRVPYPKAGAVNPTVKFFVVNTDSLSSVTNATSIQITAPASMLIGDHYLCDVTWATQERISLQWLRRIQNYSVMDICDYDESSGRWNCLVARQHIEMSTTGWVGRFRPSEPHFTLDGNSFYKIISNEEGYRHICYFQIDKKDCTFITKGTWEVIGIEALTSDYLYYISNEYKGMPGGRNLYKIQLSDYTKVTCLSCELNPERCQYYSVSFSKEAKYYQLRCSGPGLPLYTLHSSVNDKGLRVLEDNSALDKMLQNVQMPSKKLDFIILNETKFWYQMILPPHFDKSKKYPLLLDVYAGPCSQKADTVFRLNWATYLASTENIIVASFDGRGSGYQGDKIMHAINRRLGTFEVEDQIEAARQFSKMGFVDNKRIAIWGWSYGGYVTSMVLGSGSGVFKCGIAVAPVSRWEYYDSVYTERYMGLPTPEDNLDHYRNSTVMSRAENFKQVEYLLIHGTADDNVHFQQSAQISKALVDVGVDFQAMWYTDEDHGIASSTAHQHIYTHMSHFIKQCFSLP

What is called IC50 is the midpoint of a concentration-inhibition curve. Take “( 3R,S)-2-[(3R)-3-Amino-4-(2,4,5-trifluorophenyl)butanoyl]-endo-2-azabicyclo[2.2.1]hepnane-3-carbonitrile p-toluenesulpfonate [12c (S-endo): 12d (R-endo), 1:1 mixture]”: the IC50 is above 1000 nM.
